# Measured values published in patent US9598448B2, “Osmium (II) arene imino anti-cancer complexes” (University of Warwick, priority 2010, dated 2017).
# “Also recorded” adds a separate entry of the source. Where two headings read alike, the source gives them in different places.
# Legend:
# [1] = tested on: human ovarian A2780 cancer cells; test: SRB growth inhibition assay, A2780; format: cell-based
# Experimental: The concentrations of the osmium complexes that inhibit 50% of the proliferation of human ovarian A2780 cancer cells were determined by sulforhodamine B test. A2780 cells were seeded in 96-well plate (Falcon) at 5000 cells/well, after the incubation for 48 h, The complexes were solubilised in DMSO (Sigma) to provide 10 mM stocks. The stocks were serially diluted by cell culture media to give concentrations four-fold than the final concentrations for the assay. The dilutions of complexes in cell culture media were added to the 96-well plate with cells in triplicates to achieve the final concentrations. The final DMSO concentration in each well was no more than 1% (v/v). The complexes were removed after 24 h. The cells were washed with Phosphate Buffered Saline once and cell culture media was added 150 μL/well. The cells were recovered for 72 h. The surviving cells were fixed by adding 150 μL/well of 50% (w/v) trichloroacetic acid and incubated for 1 h at 277 K (277 K). The plates were washed with tap water three times and dried under a flow of warm air, 0.4% sulforhodamine B (Sigma) solution 100 μL/well followed by washing with 1% acetic acid five times and dried under a flow of warm air. The dye was dissolved in 10 mM Tris buffer […] The absorbance of each well was obtained by the Multiskan Ascent plate reader (Labsystems) at 540 nm. The absorbance value of SRB in each well is directly proportional to the cell number. Then the absorbance can be plotted against concentration and the IC50 determined by using Origin software.
# The cytotoxicity studies were carried out as described previously above.
# [2] = tested on: tubulin; test: Tubulin polymerization assay; format: biochemical; conditions: 37° C., 60 min; for Inhibition of Tubulin Polimerziation: Osmium Compounds at 10 μM
# Experimental: To follow the anticancer mechanism indicated by COMPARE, We have investigated whether osmium complexes can interacted directly with tubulin.
# A Cytoskeleton tubulin polymerization assay kit (catalog no BK004) was used in the tubulin polymerization study. Briefly, 10 μL of general tubulin buffer (80 mM PIPES, pH 6.9, 2 mM MgCl2, and 0.5 mM EGTA) containing osmium compound, colchicine or taxol was pipetted into the prewarmed 96 well microplate. Tubulin (defrosted to room temperature from −80° C. and then placed on ice before use) was diluted with tubulin polymerization buffer with 1 mM GTP to a final concentration of 4 mg mL^−1. Diluted tubulin (100 μL) was added into the wells containing osmium compound, colchicine or taxol. Diluted tubulin (100 μL) mixed with general tubulin buffer (10 μL) served as control. The absorbance at 340 nm was read immediately with a Tecan microplate reader.
# [3] = Stability and hydrolysis (1H NMR, MS, UV-vis); format: physicochemical; conditions: 310 K, 24 h, 95% deuterated phosphate buffer (10 mM)/5% MeOD-d4
# [4] = tested on: MCF-7 breast; test: MTT growth inhibition assay, MCF-7; format: cell-based, human; conditions: 96 h
# Experimental: (§1) Tumor cell growth inhibition was assessed using the MTT assay.^13 2×10^3 cells were inoculated into a 96-well plate and incubated overnight at 37° C. in a humidified atmosphere containing 5% CO2. Complexes were solubilised in DMSO as above, and then diluted in complete cell culture medium to give a broad range of concentrations. Cisplatin was included in the screen as a comparator. Medium was removed from each well and replaced with complex or control solutions, and the plates then incubated for a further 96 hours. After 96 h culture medium was removed and 200 μL of 0.5 mg mL^−1 MTT solution (Sigma) in complete medium added to each well. Following further 4 h incubation, the solution was removed from each well and 150 μL of DMSO (Sigma) added to solubilise the formazan crystals resulting from MTT conversion. Absorbance values for the resulting solutions were read at 550 nm on a microplate reader and cell survival calculated as the absorbance of treated cells divided by the control. Results were expressed in terms of IC50 values (i.e. concentration of compound required to kill 50% of cells) and all experiments were performed in triplicate.
# (§2) The following human cancer cell lines were cultured in RPMI 1640 cell culture medium supplemented with 1 mM sodium pyruvate, 2 mM L-glutamine and 10% fetal bovine serum (all from Sigma): A549 non-small cell lung, HCT-116 colon, MCF-7 breast, PC-3 prostate (all from LGC Promochem, Teddington, UK), A2780/cis ovarian (cisplatin-resistant) and RT-112 bladder (both from ECACC, Salisbury, UK).
# [5] = tested on: PC-3 prostate; test: MTT growth inhibition assay, PC-3; format: cell-based, human; conditions: 96 h
# Experimental: as §1, §2
# [6] = tested on: Balb/c immunodeficient nude mice bearing HCT-116 tumours; test: Evaluation of in vivo toxicity in nude mouse HCT-116 xenograft model; conditions: i.v. day 0, doses from 2 up to 40 mg kg^−1, monitored 15 days
# Experimental: Female Balb/c immunodeficient nude mice (Harlan, Loughborough, UK) aged 6-12 weeks were used. Mice received Harlan 2018 diet (Harlan) and water ad libitum. Mice were kept in cages in an air-conditioned room with regular alternating cycles of light and darkness. All animal procedures were carried out under a project license issued by the UK Home Office and UKCCCR guidelines (Workman P, Twentyman P, Balkwill F et al: United Kingdom Co-ordinating Committee on Cancer Research (UKCCCR) Guidelines for the Welfare of Animals in Experimental Neoplasia (Second Edition). Br J Cancer 77: 1-10, 1998) were followed throughout.
# HCT-116 was used in the study. Tumours were excised from a donor animal, placed in sterile physiological saline containing antibiotics and cut into small fragments of approximately 2 mm^3. Under brief general inhalation anaesthesia, fragments were implanted in the […] abdominal flank of each mouse using a trocar. Once the tumours could accurately be measured using callipers (mean tumour volume of approximately 50 mm^3), treatment commenced. Complexes 3 and 6 were solubilised in 10% DMSO; 5% Tween-80; 85% saline and were administered intravenously to groups of 2 mice on day 0. Animals were weighed frequently and monitored for any deleterious effects over a period of 15 days.
# [7] = tested on: HCT-116 colon; test: MTT growth inhibition assay, HCT-116; format: cell-based, human; conditions: 96 h
# Experimental: as §1, §2
# [8] = tested on: RT-112 bladder; test: MTT growth inhibition assay, RT-112; format: cell-based, human; conditions: for IC50: MTT, 96 h
# Experimental: as §1, §2
# [9] = tested on: A2780/cis ovarian (cisplatin-resistant); test: MTT growth inhibition assay, A2780/cis; format: cell-based, human; conditions: 96 h
# Experimental: as §1, §2
# [10] = tested on: A549 non-small cell lung; test: MTT growth inhibition assay, A549; format: cell-based, human; conditions: 96 h
# Experimental: as §1, §2
# [11] = pKa of hydroxyl group; format: physicochemical
# [12] = tested on: HCT-116 colon adenocarcinoma s.c. xenograft model; test: In vivo efficacy in HCT-116 s.c. xenograft model; conditions: 8.0 mg kg^−1
# [13] = tested on: human tumor 60-cell line panel; conditions: Data from NCI/DTP screening: October 2009, 48 h incubation; cited from earlier work
# [14] = tested on: human A549 lung cancer cells; conditions: cited from earlier work
# [15] = cited from earlier work
# [16] = SRB, 24 h exposure, 72 h recovery, read-out: IC50 to A2780 cell line
# [17] = A2780 human ovarian cancer cells, read-out: IC50 values against A2780
# [18] = SRB, 24 h exposure, 72 h recovery, read-out: IC50 values for iminopyridine complexes against A2780 ovarian cancer cells
# [19] = SRB, 24 h exposure, 72 h recovery, read-out: IC50 values for azopyridine complexes against A2780 ovarian cancer cells
compound,measurement,setting,value
[Os(η^6-p-cym)(abpy))I]PF6 [FY043],IC50,[1]; [16],10800 nM
[Os(η^6-bip)(1-Cl-azpy)I]PF6 [FY110],IC50,[1]; [16],3700 nM
same,Inhibition of Tubulin Polimerziation,[2],11.4%
[Os(η^6-p-cym)(1-Cl-Azpy)I]PF6 [FY112],IC50,[1]; [16],9000 nM
"CN(C)c1ccc(N=Nc2ccccn2)cc1.F[P-](F)(F)(F)(F)F.[I-].[Os+2].c1ccc(-c2ccccc2)cc1 [Complex 5, [(η^6-bip)Os(azpy-NMe2)I]PF6]",IC50,[1]; [17],140 nM
[Os(η^6-bip)(1-CF3-4-Cl-Azpy)I]PF6 [FY107],IC50,[1]; [16],5700 nM
same,Inhibition of Tubulin Polimerziation,[2],13.0%
[Os(η^6-bip)(3-Cl-Azpy)I]PF6 [FY052],IC50,[1]; [16],22000 nM
[Os(η^6-p-cym)(OH-Azpy-NO2)Cl]PF6 [FY033],IC50,[1]; [16],300 nM
[Os(η^6-p-cym)(OH-Azpy-NO2)I]PF6 [FY036],IC50,[1]; [16],290 nM
[(η^6-p-cym)Os(pp-NMe2)I]PF6 [Complex 13],IC50,[1]; [18],400 nM
[Os(η^6-p-cym)(pp-OH)Cl]PF6 [FY119],IC50,[1]; [16],5500 nM
"F[P-](F)(F)(F)(F)F.[I-].[Os+2].c1ccc(-c2ccccc2)cc1.c1ccc(N=Nc2ccccn2)cc1 [Complex 1, [(η^6-bip)Os(Azpy)I]PF6]",IC50,[1]; [19],5400 nM
[Os(η^6-bip)(pp-NMe2)I]PF6 [FY012],IC50,[1]; [16],140 nM
[Os(η^6-bip)(2-I-Azpy)I]PF6 [FY070],IC50,[1]; [16],220 nM
[Os(η^6-bip)(pp-OH)Cl]PF6 [FY150],IC50,[1]; [16],2400 nM
[(η^6-bip)Os(azpy-OH)Cl]PF6 [Complex 9],IC50,[1]; [19],800 nM
[(η^6-p-cym)Os(pp-NMe2)Cl]PF6 [Complex 16],IC50,[1]; [18],3500 nM
[Os(η^6-bip)(2-Br-Azpy)I]PF6 [FY061],IC50,[1]; [16],590 nM
[(η^6-p-cym)Os(Azpy)Cl]PF6 [Complex 8],IC50,[1]; [17],> 50000 nM
same,IC50,[1]; [19],> 50000 nM
same,stability and hydrolysis in aqueous solution,[3],disappearance of the peaks corresponding to the azopyridine ligand
[(η^6-p-cym)Os(Azpy-OH)Cl]PF6 [Complex 10],IC50,[1]; [19],1300 nM
[(η^6-bip)Os(Azpy-O)I].0.5H2O [3*],IC50,[4],250 nM
same,IC50,[5],< 300 nM
same,toxicity / deleterious effects,[6],no evident toxicity; also recorded: negligible deleterious effects
same,IC50,[1]; [17],140 nM
same,IC50,[7],< 300 nM
same,IC50,[8],400 nM
same,"difference in potency to cisplatin, RT-112",[8]; RT-112,3 fold
same,IC50,[9],< 300 nM
same,IC50,[10],400 nM
same,pKa of the hydroxyl group,[11],less than 7
[Os(η^6-bip)(pp-NMe2)Cl]PF6 [FY093],IC50,[1]; [16],440 nM
"N.N.[Cl][Pt][Cl] [Cisplatin, reference compound]",IC50,[4],3000 nM
same,IC50,[5],21500 nM
same,Maximum % weight loss,[12],8%
same,Median tumour doubling time,[12],6.4 days
same,day of maximum % weight loss,[12],6 days
same,IC50,[1]; [19],2000 nM
same,IC50,[1]; [18],2000 nM
same,IC50,[7],2600 nM
same,IC50,[8],1400 nM
same,GI50,[13],10300 nM
same,TGI,[13],50700 nM
same,IC50,[9],4000 nM
same,IC50,[10],4100 nM
[(η^6-bip)Os(Azpy)Cl]PF6 [Complex 7],IC50,[1]; [19],13900 nM
[Os(η^6-bip)(2-Cl-Azpy)I]PF6 [FY078],IC50,[1]; [16],1000 nM
[(η^6-p-cym)Os(pp)Cl]PF6 [Complex 15],IC50,[1]; [18],26200 nM
"CN(C)c1ccc(N=Nc2ccccn2)cc1.F[P-](F)(F)(F)(F)F.[Cl-].[Os+2].c1ccc(-c2ccccc2)cc1 [Complex 11, [(η^6-bip)Os(azpy-NMe2)Cl]PF6]",cytotoxicity against the A549 cancer cell line,[14],did not show significant cytotoxicity
same,activity towards human A549 lung cancer cells,[14]; up to concentrations of 100 μM,No activity
same,IC50,[1]; [19],3900 nM
same,"solubility (in water / under test conditions), earlier report",[15]; listed as 11,low solubility
same,"solubility (in water / under test conditions), earlier report",[15]; listed as [(η^6-bip)Os(Azpy-NMe2)Cl]PF6,poor solubility in water
"Cc1ccc(C(C)C)cc1.F[P-](F)(F)(F)(F)F.Oc1ccc(N=Nc2ccccn2)cc1.[I-].[Os+2] [Complex 4, [(η^6-p-cym)Os(Azpy-OH)I]PF6]",IC50,[1]; [19],300 nM
[Os(η^6-p-cym)(2-I-Azpy)I]PF6 [FY067],IC50,[1]; [16],2400 nM
"Cc1ccc(C(C)C)cc1.F[P-](F)(F)(F)(F)F.[I-].[Os+2].c1ccc(N=Nc2ccccn2)cc1 [Complex 2, [(η^6-p-cym)Os(Azpy)I]PF6]",IC50,[1]; [19],10200 nM
[Os(η^6-bip)(pp)Cl]PF6 [FY098],IC50,[1]; [16],4600 nM
[(η^6-bip)Os(pp)I]PF6 [Complex 14],IC50,[1]; [18],18600 nM
[Os(η^6-bip)(2-F-Azpy)I]PF6 [FY069],IC50,[1]; [16],630 nM
same,Inhibition of Tubulin Polimerziation,[2],21.0%
same,IC50,[2]; purified tubulin,~20000 nM
same,effect on amount of tubulin polymerized,[2]; purified tubulin,reduced the amount of tubulin polymerized in a dose-dependent manner
